We go through one compound from PMC7306898, “Concentration-Dependent Activity of Hydromethylthionine on Clinical Decline and Brain Atrophy in a Randomized Controlled Trial in Behavioral Variant Frontotemporal Dementia” (Journal of Alzheimer's Disease, 2020).

Data set [1] has as its system subjects with AD or bvFTD. Set-up: method as in Developmental Safety Update Report #3. The following applies: 1713 subjects randomized to LMTM (or matching placebo), blinded, as of 14 October 2014 ref Developmental Safety Update Report #3; cited from earlier work.
Data set [2] concerns bvFTD patients. The data set is described as follows: Addenbrookes Cognitive Examination – III (ACE-III), 52-week Phase III trial. The data set is classed as in vivo, human. The source says: (§1) The two doses were provided in identical blister packages as visually identical oral tablets to be taken for up to 52 weeks. The primary outcome was the Addenbrookes Cognitive Examination – Revised (ACE-R). The Functional Activities Questionnaire (FAQ) and reduction in progression of whole brain atrophy were alternative co-primary outcomes. Other outcomes included: Modified Alzheimer’s Disease Cooperative Study – Clinical Global Impression of Change (Modified-CGIC) determined by a third independent rater; Frontotemporal Dementia Rating Scale (FRS); MMSE (from MMSE items incorporated into ACE-R); Addenbrookes Cognitive Examination – III (a revised version of ACE-R which excludes MMSE items subject to copyright restrictions); change in brain volume measured by MRI in frontal and temporal lobes (FTV) and lateral ventricles (LVV); and the effect of hydromethylthionine in patients with known genetic mutations associated with bvFTD. Blood was collected prospectively for the purpose of population PK analyses.
The primary analyses were specified as a mixed model, repeated-measures analysis with an unstructured covariance matrix and no imputation for missing data. […]

For data set [3], the system named is CYP2B6. Set-up: method as in Investigator's Brochure. The settings on record: ref Investigator's Brochure; cited from earlier work.
Data set [4] deals with bvFTD patients. The data set is described as follows: Lateral ventricular volume (LVV) change by MRI. It is filed as in vivo, human. The following applies: Patients receiving 8 mg/day, vs Cmax,ss ≤[…], 52 weeks.
From the text: as §1
MRI scans were obtained at screening and weeks 16, 32, and 52. The acquisition protocol was standardized across sites and all data were centrally collected, quality-controlled, and analyzed by the imaging core laboratory (Bioclinica). MRI data included a 3D sagittal T1-weighted sequence (using parameters compatible with the ADNI protocol) which was used for all volumetric analyses. […]

Data set [5] deals with bvFTD patients. Briefly: Exposure-response and expanded Hill equation analysis. The data set is classed as in vivo, human. Here is the method: The protocol specified that PK plasma sampling was to be conducted only at sites with adequate facilities (i.e., a refrigerated centrifuge and adequate capability to freeze samples reliably). Blinded analyses were conducted at the University of Aberdeen GLP Test Facility. […] The method was validated for use in the Phase III studies over the range 0.2 to 10 ng/ml. […] Model development and estimation of steady state maximum plasma concentration (Cmax,ss) were determined independently by the Institute of Clinical Pharmacodynamics (ICPD, NY, USA). Cmax,ss estimates using a model validated in Phase I studies were based on in-clinic plasma concentration data obtained on Day 1 when the dose-sampling interval was accurately recorded. […] Change in ACE-R, ACE-III, FAQ, MMSE, Modified-CGIC, FRS, whole brain volume (WBV), lateral ventricular volume (LVV), and frontotemporal volume (FTV), as well as UPDRS Part III, were expressed as a function of Cmax,ss estimates grouped into four groups described in the results section. Cmax,ss values outside 3x the interquartile range were excluded from determination of concentration-response relationships, but were included in inferential statistical analyses.
A further analysis was undertaken (HS, BOS) using a modified form of the Hill equation which is commonly used in the analysis of concentration-response data in order to estimate the minimum and maximum plasma concentrations for expected treatment response over 52 weeks. […] In addition, a linear term was added to permit trends occurring at high concentrations to be included in the model. […] The modified Hill equation was applied to the data in the form:
change in parameter = Emin - (Emax x ([C]- 0.29))/(EC50 + ([C] -0.29)) + (A x ([C] -0.29))
where dose is in mg/day and Cmax,ss is in ng/ml units.

For `CN(C)c1ccc2c(c1)Sc1cc(N(C)C)ccc1N2` [hydromethylthionine, leuco-methylthioninium bis(hydromethanesulphonate)], the “cases of possible serotonin toxicity reported as AEs” value in data set [1] is 2. Further, the “ACE-III: Decline±SEM for LMTM 8 mg/day group” value in data set [2] (8 mg/day (n = 110), modeled change from baseline at 52 weeks) was “–10.70±1.55”. For the same compound, the “ACE-III: Difference±SEM from LMTM 8 mg/day for 200 mg/day” value in data set [2] (200 mg/day (n = 104) vs 8 mg/day, 52 weeks) is given as 0.44±2.27. Moreover, the “induction of CYP2B6” value in data set [3] is “w eak in ducer”. The “LVV: Difference±SEM for Cmax,ss > […]” value in data set [4] is reported as “–4.12±1.06 cm^3”. Moreover, the “plasma levels over which there are steep concentration-response relationships on clinical and MRI outcomes” value in data set [5] (8 mg/day dose, bvFTD) lay within 0.3 to 0.6 ng/mL. Moreover, in data set [5] (Hill equation analyses), the “dose at which pharmacological activity is predicted to peak in bvFTD” value is recorded as approximately 30 mg/day. Also, the “doses at which treatment responses in bvFTD are predicted to be maximal / roughly comparable” value in data set [5] (Hill equation analysis) was 20 to 60 mg/day. Moreover, the “predicted treatment effect on whole brain atrophy” value in data set [5] (at 30 mg/day dose) is 18.52 cm^3. Moreover, the “predicted treatment effect on the FAQ scale” value in data set [5] (at 30 mg/day dose, mean, bootstrap analysis) is 7.73 units. In data set [5] (expanded Hill equation), the “theoretical dose corresponding to the upper limiting concentration” value amounted to 301 mg/day. Also, the “lower (minimum) limiting plasma concentration required for treatment response” value in data set [5] (expanded Hill equation, 8 mg/day) turned out to be 0.29 ng/mL. Besides, in data set [5] (expanded Hill equation, whole brain volume, 200 mg/day terciles), the “upper limiting concentration at which the treatment effect would be lost” value was found to be 13.6 ng/mL. The “plasma concentration (Cmax,ss) threshold required for clinical pharmacological activity in bvFTD” value in data set [5] (upper limit of the lowest 35% group at 8 mg/day) is 0.346 ng/ml.
